Assay results from article PMC11705955, “Lack of activity of HIV-1 integrase strand-transfer inhibitors on recombinase activating gene (RAG) activity at clinically relevant concentrations” (Microbiology Spectrum, 2024).

T1: recombinant human core RAG1 (AA387-1011)/core RAG2 (AA1-387) in the presence of HMGB1 (Homo sapiens, UniProt P15918+P55895)
T1 construct: made in house; host or cells: RAG1/RAG2 co-expressed in Expi293F GnTI human cells; HMGB1 in E. coli BL21DE3
T1 sequence (P15918 387-1011): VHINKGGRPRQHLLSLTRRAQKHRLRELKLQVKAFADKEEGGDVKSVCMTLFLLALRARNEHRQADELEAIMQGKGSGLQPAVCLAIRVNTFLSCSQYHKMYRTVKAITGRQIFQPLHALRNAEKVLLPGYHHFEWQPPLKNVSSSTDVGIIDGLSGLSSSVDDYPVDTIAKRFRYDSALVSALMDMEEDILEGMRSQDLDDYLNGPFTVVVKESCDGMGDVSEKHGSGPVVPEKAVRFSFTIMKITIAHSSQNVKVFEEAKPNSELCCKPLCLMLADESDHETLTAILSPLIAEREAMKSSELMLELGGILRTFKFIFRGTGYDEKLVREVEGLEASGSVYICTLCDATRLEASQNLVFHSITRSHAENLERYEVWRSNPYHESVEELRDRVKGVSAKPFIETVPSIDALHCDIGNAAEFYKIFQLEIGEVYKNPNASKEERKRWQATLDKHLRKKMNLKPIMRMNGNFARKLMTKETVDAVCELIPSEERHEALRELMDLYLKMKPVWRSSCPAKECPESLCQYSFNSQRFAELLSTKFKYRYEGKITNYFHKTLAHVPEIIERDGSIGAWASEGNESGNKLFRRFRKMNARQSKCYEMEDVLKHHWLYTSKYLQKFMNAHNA
T1 sequence (P55895 1-387): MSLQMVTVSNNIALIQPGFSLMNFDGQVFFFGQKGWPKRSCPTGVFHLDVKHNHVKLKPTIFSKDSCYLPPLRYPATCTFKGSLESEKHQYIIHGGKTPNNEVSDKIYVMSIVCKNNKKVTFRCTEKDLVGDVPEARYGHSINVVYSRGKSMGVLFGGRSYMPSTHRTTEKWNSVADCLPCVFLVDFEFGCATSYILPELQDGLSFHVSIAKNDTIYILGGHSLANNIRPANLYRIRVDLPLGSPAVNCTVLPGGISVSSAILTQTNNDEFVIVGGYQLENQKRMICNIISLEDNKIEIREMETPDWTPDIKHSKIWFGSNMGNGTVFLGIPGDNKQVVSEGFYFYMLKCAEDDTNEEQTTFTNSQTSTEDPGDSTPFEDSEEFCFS

T2: human core RAG1 (AA387-1011), MBP-10N-PreScission-RAG1 (human, UniProt P15918-1 387-1011)
T2 construct: also called RAG1 core domain; source: Expi293F GnTI cells, plasmids transfected (co-expressed with core RAG2), purified (MBP-Trap, Superdex 200); not shown: MBP, N-terminal, kept
T2 sequence (looked up): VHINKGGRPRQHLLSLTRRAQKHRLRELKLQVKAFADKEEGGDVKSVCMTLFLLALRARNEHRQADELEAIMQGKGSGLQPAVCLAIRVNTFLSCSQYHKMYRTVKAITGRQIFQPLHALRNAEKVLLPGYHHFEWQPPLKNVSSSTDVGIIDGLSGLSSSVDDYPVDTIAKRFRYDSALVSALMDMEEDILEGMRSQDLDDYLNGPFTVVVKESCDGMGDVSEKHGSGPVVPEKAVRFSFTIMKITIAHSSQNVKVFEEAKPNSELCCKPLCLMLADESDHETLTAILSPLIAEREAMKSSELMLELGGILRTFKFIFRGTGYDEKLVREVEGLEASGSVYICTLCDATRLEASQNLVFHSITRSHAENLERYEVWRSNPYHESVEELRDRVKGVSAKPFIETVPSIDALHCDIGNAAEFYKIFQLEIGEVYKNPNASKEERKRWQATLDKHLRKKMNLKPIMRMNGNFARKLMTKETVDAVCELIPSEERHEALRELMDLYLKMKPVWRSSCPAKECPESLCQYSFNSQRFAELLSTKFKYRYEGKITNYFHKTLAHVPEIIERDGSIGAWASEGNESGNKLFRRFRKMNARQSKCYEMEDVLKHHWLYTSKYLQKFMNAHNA


Experiments:
[1] = biological target: T1, recombinant human core RAG1 (AA387-1011)/core RAG2 (AA1-387) in the presence of HMGB1; assay: Biochemical RAG DNA cleavage assay (gel-based, dsDNA 12RSS/23RSS substrate); conditions: 25 nM RAG1-RAG2, 575 nM HMGB1, 10 nM dsDNA, 5 mM MgCl2, 1 h 37°C, no serum
Excerpt: To directly observe the potential inhibition of RAG1/RAG2, we measured the effect of INSTIs on DNA cleavage by RAG1/RAG2 in the presence of HMGB1. This biochemical system utilizes pre-assembled recombinant human core RAG1 (AA387-1011)/core RAG2 (AA1-387) in the presence of excess truncated HMGB1 (AA1-163) and a linear dsDNA RSS substrate, using gel electrophoresis and a fluorescent dye to monitor cleavage products (Fig. 2A) ([24]). The dsDNA RSS substrate, containing both the 12RSS and 23RSS, was designed to have the different cleavage products resolved via gel electrophoresis. RAG1/RAG2 can singly cleave either the 12RSS or the 23RSS, or both, leading to potentially five different products in the reaction (Fig. 2B). HMGB1 orients RAG1/RAG2 for proper binding to the RSS substrate ([16]). We quantified the activity of RAG as the percentage of substrate conversion to a specific cleaved product, as separated by agarose gel electrophoresis and determined by the DNA-binding fluorescent dye. With the 569-bp substrate, a single cleavage of the 12RSS results in a 492-bp dsDNA and a 77-bp hairpin. Cleavage of the 23RSS alone produces a 433-bp dsDNA and a 136-bp hairpin. Successful cleavage of both RSSs results in a 356-bp dsDNA and both of the 77- and 136-bp hairpins. For the RAG activity analysis, we measured the amount of double cleaved product (356 bp) in relation to the amount of substrate (569 bp) at the end of the reaction. The optimal concentrations of RAG1/RAG2, HMGB1, and MgCl2 were determined through titration (Fig. S2). Because there is no direct RAG1/RAG2 inhibitor previously characterized, we used suramin, a polyanionic compound commonly used as a non-specific inhibitor for DNA/RNA binding or processing proteins as a control for inhibition ([25], [26]).
Prior to the cleavage assay, compounds at the designated concentrations were spotted into 96-well plates using the Tecan Digital D300e (Tecan, Mannedorf, Switzerland). RAG1/RAG2 was incubated with HMGB1 and MgCl2 on ice for at least 15 min in a reaction buffer (25-mM 3-(N-morpholino)propanesulfonic acid [MOPS], pH 7.0, 50-mM KCl, and 2-mM DTT). After the initial incubation, the enzyme solution was added to the compound plates and incubated for an additional 15 min at room temperature. dsDNA substrate in reaction buffer was added to the plates to initiate the reaction. The final conditions of the reaction are 25-nM RAG1–RAG2 complex, 575-nM HMGB1, 10-nM dsDNA substrate, and 5-mM MgCl2. After 1 h at 37°C, reactions were quenched by the addition of final concentrations of 0.19% SDS, 45.5-µg/mL Proteinase K, and 60-mM EDTA.
Glycerol was added to a final concentration of 7.6% in each sample, and samples were loaded onto non-denaturing 6% Tris–borate–EDTA (TBE) gels in 1× TBE buffer. The samples were run at 100 V for 1.5 h, and gels were stained with 1× SYBR Gold in 1× TBE for 20 min. The stained gels were imaged with an Amersham Typhoon Biomolecular Imager.
The gel images were analyzed using ImageQuant software (Cytiva). The densities of the 569-bp-length substrate and fully cleaved 356-bp-length product were quantified. The product density was divided by the sum of substrate and product bands to obtain a percent product value. These calculated values were subtracted from a negative control (pre-quenched reaction where EDTA was added before reaction was initiated) and then normalized to the DMSO-treated control. The normalized data were plotted against concentration using GraphPad Prism (version 9.3; GraphPad Software, San Diego, CA, USA).

[2] = biological target: T2, human core RAG1 (AA387-1011), …; assay: SEC; analytical SEC-HPLC, Superdex 200 Increase 5/150 GL column, 10-µg protein sample; co-expressed and co-purified MBP-tagged core RAG1 and core RAG2; conditions: both partners purified

IC50 [1] [µM]	binding result [2]	Molecule
4.5 ± 0.4		Cc1ccc(C(=O)Nc2ccc(S(=O)(=O)O)c3cc(S(=O)(=O)O)cc(S(=O)(=O)O)c23)cc1NC(=O)c1cccc(NC(=O)Nc2cccc(C(=O)Nc3cc(C(=O)Nc4ccc(S(=O)(=O)O)c5cc(S(=O)(=O)O)cc(S(=O)(=O)O)c45)ccc3C)c2)c1 [Suramin]
	binds	human core RAG2 (AA1-387), MBP-5A-RAG2 (domain or fragment, UniProt P55895 1-387, looked up, also called RAG2 core domain; source: Expi293F GnTI cells, plasmids transfected (co-expressed with core RAG1), purified (MBP-Trap, Superdex 200); not shown: MBP, N-terminal, kept) MSLQMVTVSNNIALIQPGFSLMNFDGQVFFFGQKGWPKRSCPTGVFHLDVKHNHVKLKPTIFSKDSCYLPPLRYPATCTFKGSLESEKHQYIIHGGKTPNNEVSDKIYVMSIVCKNNKKVTFRCTEKDLVGDVPEARYGHSINVVYSRGKSMGVLFGGRSYMPSTHRTTEKWNSVADCLPCVFLVDFEFGCATSYILPELQDGLSFHVSIAKNDTIYILGGHSLANNIRPANLYRIRVDLPLGSPAVNCTVLPGGISVSSAILTQTNNDEFVIVGGYQLENQKRMICNIISLEDNKIEIREMETPDWTPDIKHSKIWFGSNMGNGTVFLGIPGDNKQVVSEGFYFYMLKCAEDDTNEEQTTFTNSQTSTEDPGDSTPFEDSEEFCFS
